Results as given in patent US4645773A, “β-carboline-3-oxadiazolyl derivatives, and their use as psychotropic agents” (Schering Aktiengesellschaft, priority 1984, dated 1987).

Tests used:
benzodiazepine receptor [1] = assay: displacement of 3H-flunitrazepam specific binding to benzodiazepine receptors (in vitro), rat forebrain membranes; conditions: rat forebrain suspension, 3H-flunitrazepam 1.0 nM, 0° C., 40-60 min, pH 7.1
Description: These sites are called benzodiazepine receptors. The displacement activity of the compounds of the invention has been determined by determining the IC50 value and the ED50 value.
The IC50 value represents the concentration which causes a displacement of 50% of the specific binding of ^3 H-flunitrazepam (1.0 nM, 0° C.) in samples comprising a total volume of 0.55 ml of a suspension of brain membrane, e.g from rats.
The displacement test is performed as follows:
0.50 ml of a suspension of non-treated rat forebrain in 25 mM KH2 PO4, pH=7.1 (5-10 mg tissue/sample) is incubated for 40-60 minutes at 0° C. together with ^3 H-diazepam (specific activity 87 Ci/mmol, 1.0 nM) or ^3 H-flunitrazepam (specific activity 87 Ci/mmol, 1.0 nM). After incubation, the suspension is filtered through "Whatman GF/C" glass fiber filters, the residue washed twice with cold buffer solution and the radioactivity measured by scintillation counting.
The test is repeated except that prior to the addition of the radioactive labelled benzodiazepine, a given amount or an excessive amount of the compound, the displacement capability of which is to be determined, is added. Based on the data obtained the IC50 value can be calculated.

benzodiazepine receptor [2] = assay: in vivo inhibition of 3H-flunitrazepam binding to benzodiazepine receptors in mouse forebrain; conditions: mice, usually subcutaneous, 3H-flunitrazepam i.v. 15 min later, killed after further 20 min
Description: The ED50 value represents the dose (mg/kg) of a test substance which causes the specific binding of flunitrazepam to benzodiazepine receptors in a living brain to be reduced to 50% of the control value. Such an in vivo test is carried out as follows:
Groups of mice are injected with the test substance at different doses and usually subcutaneously. 15 minutes later ^3 H-flunitrazepam is administered intravenously to the mice and after further 20 minutes the mice are killed. Their forebrain membranes are removed and the radioactivity of these forebrain membranes is measured by scintillation counting. The ED50 value is determined from dose-response curves.

Structure (SMILES) | Affinity for the benzodiazepine receptor, inhibition of 3H-flunitrazepam binding, IC50 (in vitro) (benzodiazepine receptor [1]) [ng/mL] | inhibition of 3H-flunitrazepam binding, ED50 (in vivo) (benzodiazepine receptor [2]) [mg/kg]
CCc1noc(-c2ncc3[nH]c4cccc(OC5CCC5)c4c3c2COC)n1 | 0.4 | 0.6
CCc1noc(-c2cc3c(cn2)[nH]c2ccc(C#CCN(C)C)cc23)n1 [3-[5-(3-ethyl-1,2,4-oxadiazole)-yl]-6-(3-dimethylaminopropargyl)-β-carboline] | 0.4 | 7.9
COCc1c(-c2nc(C)no2)ncc2[nH]c3cccc(OCc4ccccc4)c3c12 | 0.4 | 0.9
CCc1noc(-c2ncc3[nH]c4cccc(OC(C)C)c4c3c2C)n1 | 0.5 | 0.4
CCc1nc(-c2ncc3[nH]c4cccc(OCc5ccccc5)c4c3c2COC)no1 | 0.5 | 1.0
CCOCc1cccc2[nH]c3cnc(-c4nc(CC)no4)c(C)c3c12 | 0.26 | 0.4
CCc1noc(-c2ncc3[nH]c4cccc(OC5C=CCCC5)c4c3c2COC)n1 (stereo not drawn) | 0.4 | 0.75
CCCOc1cccc2[nH]c3cnc(-c4nc(CC)no4)c(COC)c3c12 [3-[5-(3-ethyl-1,2,4-oxadiazole)-yl]-4-methoxymethyl-5-propoxy-β-carboline] | 0.3 | 1.4
CCc1noc(-c2ncc3[nH]c4cccc(OC(C)C)c4c3c2COC)n1 | 0.2 | 0.2
